Source: patent publication US12209096B2, “Compounds and compositions for inducing chondrogenesis” (NOVARTIS AG, priority 2017, dated 2025)
Like-named read-outs stand apart in the source and are kept apart here.

Test system: NHACs
Test: calcium flux assay
Assay type: cell-based, human
Details: for Emax: read-out: (A) % Efficacy
Protocol: NHACs were plated in 1536 Greiner plate at 2000 cells/well in 4 ul volume. 24 hours later, 4 ul of Calcium 5 dye solution (Hank's Balanced Salt/HEPES buffer containing 5 mM of Probenecid) was then added and incubated for 1 hour at room temperature. Fluorescence readings at excitation wavelength of 470-495 nm and emission wavelength of 515-575 nm were done using FLIPR high-throughput screening system (Molecular Devices, Sunnyvale, CA). The test compound was then added to each well at the indicated dose. Signal was measured prior compound dispense and after using a first interval of 1 second for 60 reads and second interval of 3 second for 20 reads. Data was analyzed using Molecular Devices ScreenWorks® Software.

Row | SMILES | EC50 (Homo sapiens) | EC50 | Emax (Homo sapiens) | (A) % Efficacy
1 | O=C(Nc1cnc(Cl)c(Cl)c1)[C@@H]1[C@@H]2O[C@@H]([C@H]3C[C@H]32)[C@@H]1c1ccncc1 (single isomer, unassigned) [Example 43b] | > 50 µM |  | 3% | 
2 | COc1ccc(NC(=O)[C@H]2[C@H]3O[C@H]([C@@H]4C[C@@H]43)[C@H]2c2ccc(C)nc2)cn1 [Example 3, (1R,2R,4S,5S,6R,7R)-N-(6-methoxypyridin-3-yl)-7-(6-methylpyridin-3-yl)-8-oxatricyclo[3.2.1.0^2,4]octane-6-carboxamide] | > 50 µM |  | 0% | 
3 | O=C(Nc1ccc(Cl)c(Cl)c1)[C@H]1[C@@H](c2cnc(F)nc2)[C@H]2O[C@@H]1C[C@@H]2O [Example 61, (1R,2S,3S,4R,5S)—N-(3,4-dichlorophenyl)-3-(2-fluoropyrimidin-5-yl)-5-hydroxy-7-oxabicyclo[2.2.1]heptane-2-carboxamide] | > 50 µM |  | 24% | 
4 | O=C(Nc1ccc(Cl)c(Cl)c1)[C@H]1[C@@H](c2cnc(C(F)(F)F)nc2)[C@H]2O[C@@H]1C[C@@H]2O [Example 62, (1R,2S,3S,4R,5S)—N-(3,4-dichlorophenyl)-5-hydroxy-3-(2-(trifluoromethyl)pyrimidin-5-yl)-7-oxabicyclo[2.2.1]heptane-2-carboxamide] | 8.2 µM |  | 61% | 
5 | O=C(Nc1cnc(Cl)c(Cl)c1)[C@@H]1[C@@H]2O[C@@H]([C@H]3C[C@H]32)[C@@H]1c1ccncc1 [Example 43a, (1S,2S,4R,5R,6S,7S)—N-(5,6-dichloropyridin-3-yl)-7-(pyridin-4-yl)-8-oxatricyclo[3.2.1.0^24]octane-6-carboxamide] |  | > 50 µM |  | 0%
6 | O=C(Nc1cccc(C(F)(F)F)c1)[C@@H]1[C@@H]2O[C@@H](C[C@H]2O)[C@@H]1c1ccncc1 [Example 12, (1S,2S,3S,4S,6R)-6-hydroxy-3-(pyridin-4-yl)-N-[3-(trifluoromethyl)phenyl]-7-oxabicyclo[2.2.1]heptane-2-carboxamide] | > 50 µM |  | 22% | 
7 | O=C(Nc1ccc(Cl)c(Cl)c1)[C@H]1[C@@H](c2cc(F)ncc2F)[C@H]2O[C@@H]1C[C@@H]2O [Example 58, (1R,2S,3S,4R,5S)—N-(3,4-dichlorophenyl)-3-(2,5-difluoropyridin-4-yl)-5-hydroxy-7-oxabicyclo[2.2.1]heptane-2-carboxamide] | > 50 µM |  | 0% | 
8 | Cc1cc([C@H]2[C@H]3O[C@H]([C@@H]4C[C@@H]43)[C@@H]2C(=O)Nc2ccc(Cl)cc2C#N)ccn1 [Example 67, (1S,2S,4R,5R,6R,7S)—N-(4-chloro-2-cyanophenyl)-7-(2-methylpyridin-4-yl)-8-oxatricyclo[3.2.1.0^2,4]octane-6-carboxamide] | > 50 µM |  | 39% | 
9 | Cc1cc([C@H]2[C@H]3O[C@H](C[C@H]3F)[C@H]2C(=O)Nc2cccc(C(F)(F)F)c2)ccn1 [Example 15, (1R,2S,3S,4R,5R)-5-fluoro-3-(2-methylpyridin-4-yl)-N-[3-(trifluoromethyl)phenyl]-7-oxabicyclo[2.2.1]heptane-2-carboxamide] | > 50 µM |  | 0% | 
10 | O=C(Nc1ccc(Cl)c(Cl)c1)[C@@H]1[C@@H]2O[C@@H]([C@H]3C[C@H]32)[C@@H]1c1cnc(F)nc1 [Example 36, (1S,2S,4R,5R,6S,7S)—N-(3,4-dichlorophenyl)-7-(2-fluoropyrimidin-5-yl)-8-oxatricyclo[3.2.1.0^2,4]octane-6-carboxamide] | 8.6 µM |  | 124% | 
11 | COc1cc([C@H]2[C@H]3O[C@H](C[C@@H]3F)[C@H]2C(=O)Nc2ccc(Cl)c(Cl)c2)ccn1 [Example 19, (1R,2S,3S,4R,5S)-N-(3,4-dichlorophenyl)-5-fluoro-3-(2-methoxypyridin-4-yl)-7-oxabicyclo[2.2.1]heptane-2-carboxamide] | 25 µM |  | 258% | 
12 | COc1cc([C@H]2[C@H]3O[C@H](C[C@H]3F)[C@H]2C(=O)Nc2ccc(Cl)c(Cl)c2)ccn1 [Example 65, (1R,2S,3S,4R,5R)—N-(3,4-dichlorophenyl)-5-fluoro-3-(2-methoxypyridin-4-yl)-7-oxabicyclo[2.2.1]heptane-2-carboxamide] | 18 µM |  | 169% | 

Now from value to compound, other results behind:

Row | EC50 (Homo sapiens) | EC50 | SMILES | Emax (Homo sapiens) | (A) % Efficacy
13 | > 50 µM |  | CN[C@@H]1C[C@H]2O[C@@H]1[C@H](c1ccnc(F)c1)[C@H]2C(=O)Nc1cnc(Cl)c(Cl)c1 [Example 174, (1R,2R,3S,4R,5R)—N-(5,6-dichloropyridin-3-yl)-3-(2-fluoropyridin-4-yl)-5-(methylamino)-7-oxabicyclo[2.2.1]heptane-2-carboxamide] | 37% | 
14 | 28 µM |  | O=C(Nc1ccc(Cl)c(Cl)c1)[C@@H]1[C@@H](c2cc(F)ncc2F)[C@H]2O[C@@H]1C[C@@H]2O [Example 147, (1R,2R,3S,4R,5S)—N-(3,4-dichlorophenyl)-3-(2,5-difluoropyridin-4-yl)-5-hydroxy-7-oxabicyclo[2.2.1]heptane-2-carboxamide] | 284% | 
15 | 16 µM |  | O=C(Nc1cnc(Cl)c(Cl)c1)[C@@H]1[C@H]2O[C@H]([C@@H]3C[C@@H]32)[C@H]1c1ccnc(F)c1F (single isomer, unassigned) [Example 73] | 127% | 
16 | 30 µM |  | Nc1ncc([C@@H]2[C@@H](C(=O)Nc3ccc(Cl)c(Cl)c3)[C@@H]3O[C@H]2C[C@H]3F)cn1 [Example 114, (1S,2R,3S,4S,6R)-3-(2-aminopyrimidin-5-yl)-N-(3,4-dichlorophenyl)-6-fluoro-7-oxabicyclo[2.2.1]heptane-2-carboxamide] | 127% | 
17 | 10 µM |  | O=C(Nc1cccc(C(F)(F)F)c1)[C@H]1[C@@H]2O[C@@H]([C@H]3C[C@H]32)[C@@H]1c1cncnc1 [Example 130, (1S,2S,4R,5R,6R,7S)-7-(pyrimidin-5-yl)-N-(3-(trifluoromethyl)phenyl)-8-oxatricyclo[3.2.1.0^2,4]octane-6-carboxamide] | 237% | 
18 | 12 µM |  | Cc1cc([C@H]2[C@H]3O[C@H](C[C@@H]3F)[C@@H]2C(=O)Nc2cccc(C(F)(F)F)c2)ccn1 [Example 107, (1R,2R,3S,4R,5S)-5-fluoro-3-(2-methylpyridin-4-yl)-N-(3-(trifluoromethyl)phenyl)-7-oxabicyclo[2.2.1]heptane-2-carboxamide] | 139% | 
19 | 30 µM |  | Nc1ncc([C@H]2[C@H]3O[C@H](C[C@@H]3F)[C@@H]2C(=O)Nc2ccc(Cl)c(Cl)c2)cn1 [Example 113, (1R,2R,3S,4R,5S)-3-(2-aminopyrimidin-5-yl)-N-(3,4-dichlorophenyl)-5-fluoro-7-oxabicyclo[2.2.1]heptane-2-carboxamide] | 103% | 
20 | 17 µM |  | O=C(Nc1cnc(Cl)c(Cl)c1)[C@H]1[C@@H]2O[C@@H]([C@H]3C[C@H]32)[C@@H]1c1ccncc1 [Example 136, (1S,2S,4R,5R,6R,7S)—N-(5,6-dichloropyridin-3-yl)-7-(pyridin-4-yl)-8-oxatricyclo[3.2.1.0^2,4]octane-6-carboxamide] | 254% | 
21 | 18 µM |  | Cc1cc([C@H]2[C@H]3O[C@H](C[C@H]3F)[C@@H]2C(=O)Nc2ccc(OC(F)(F)F)c(F)c2)ccn1 [Example 100, (1R,2R,3S,4R,5R)-5-fluoro-N-(3-fluoro-4-(trifluoromethoxy)phenyl)-3-(2-methylpyridin-4-yl)-7-oxabicyclo[2.2.1]heptane-2-carboxamide] | 310% | 
22 | 28 µM |  | O=C(Nc1ccc(Cl)c(Cl)c1)[C@@H]1[C@@H](c2ccnc(F)c2)[C@H]2O[C@@H]1C[C@@H]2O (racemic) [Example 142, rac-(1R,2R,3S,4R,5S)—N-(3,4-dichlorophenyl)-3-(2-fluoropyridin-4-yl)-5-hydroxy-7-oxabicyclo[2.2.1]heptane-2-carboxamide] | 142% | 
23 | > 50 µM |  | O=C(Nc1ccc(Cl)c(Cl)c1)[C@@H]1[C@@H](c2cnc(F)nc2)[C@H]2O[C@@H]1C[C@@H]2O [Example 151, (1R,2R,3S,4R,5S)—N-(3,4-dichlorophenyl)-3-(2-fluoropyrimidin-5-yl)-5-hydroxy-7-oxabicyclo[2.2.1]heptane-2-carboxamide] | 0% | 
24 | 21 µM |  | O=C(Nc1ccc(Cl)c(Cl)c1)[C@H]1[C@@H]2O[C@@H]([C@H]3C[C@H]32)[C@@H]1c1ccncc1 [Example 137, (1S,2S,4R,5R,6R,7S)—N-(3,4-dichlorophenyl)-7-(pyridin-4-yl)-8-oxatricyclo[3.2.1.0^2,4]octane-6-carboxamide] | 202% | 
25 | 10 µM |  | O=C(Nc1ccc(Cl)c(Cl)c1)[C@H]1[C@@H]2O[C@@H]([C@H]3C[C@H]32)[C@@H]1c1cncnc1 (racemic) [Example 126, rac-(1S,2S,4R,5R,6R,7S)—N-(3,4-dichlorophenyl)-7-(pyrimidin-5-yl)-8-oxatricyclo[3.2.1.0^2,4]octane-6-carboxamide] | 212% | 
26 | > 50 µM |  | Cc1cc([C@H]2[C@H]3O[C@H]([C@H](O)[C@@H]3O)[C@@H]2C(=O)Nc2cnc(Cl)c(Cl)c2)ccn1 [Example 162, (1S,2R,3S,4R,5S,6R)—N-(5,6-dichloropyridin-3-yl)-5,6-dihydroxy-3-(2-methylpyridin-4-yl)-7-oxabicyclo[2.2.1]heptane-2-carboxamide] | 25% | 
27 | 21 µM |  | COc1cc([C@H]2[C@H]3O[C@H](C[C@@H]3O)[C@@H]2C(=O)Nc2ccc(Cl)c(Cl)c2)ccn1 (racemic) [Example 139, rac-(1R,2R,3S,4R,5S)—N-(3,4-dichlorophenyl)-5-hydroxy-3-(2-methoxypyridin-4-yl)-7-oxabicyclo[2.2.1]heptane-2-carboxamide] | 223% | 
28 | 27 µM |  | Cc1cc([C@@H]2[C@@H](C(=O)Nc3cccc(C(F)(F)F)c3)[C@@H]3O[C@H]2C[C@H]3F)ccn1 [Example 108, (1S,2R,3S,4S,6R)-6-fluoro-3-(2-methylpyridin-4-yl)-N-(3-(trifluoromethyl)phenyl)-7-oxabicyclo[2.2.1]heptane-2-carboxamide] | 137% | 
